# Reference: US20220251124A1, “3,5-BIS(PHENYL)-1H-HETEROARYL DERIVATIVES AS MEDICAMENTS” (INSTITUTE OF BIOTECHNOLOGY CAS, V.V.I., priority 2019, published 2022)
# What was measured:
# Type in all cases: cell-based
# MCF7 cells = test: real time monitoring of cell confluence via Juli FL; settings: 30 nM
# Method: We also tested the ability of compound 1 to suppress proliferation of cancer cells by an alternative approach via the real time monitoring with a cellular analyser Juli F L. In brief, MCF7 cells were seeded in a 6-well plate the day before to reach approximately 5% confluence on the following day. Next day, the camera of the instrument was focused on a particular field with approximately 5% confluence and cells were continuously monitored, recording the confluence and visual appearance every 30 minutes for 48 hrs. Values were then expressed either as simple confluence at the end of the experiment or as slope of the line representing the confluence during a given period of time (Table 5).
# [1] = test system: MCF7 mammospheres (cancer stem-like cells); test: formation and growth of mammospheres, Cell Titer Glo 3D; settings: 1 μM, 140 hrs
# Method: To test the effect of compound 1 on the viability and proliferation of other resistant cancer cell types, we utilized a model of cancer stem-like cells that can be cultivated in vitro, so-called “mammospheres”. […] In this assay MCF7 spheres were dissociated to single cells/small spheres, seeded 10,000 cells per well on a special cell culture plastic that is non adherent in the Mammocult medium (Stem cell technologies) and compound 1 and compound 2 at 1 μM were added. This represents the non-cytotoxic concentration. Cells were left to grow and generate spheres for 140 hrs. The amount of cells was then measured by the Cell TiterGlo 3D reagent (Promega) that determines cell counts of 3D cultured cells as a function of their ATP content that is determined by a chemiluminescent assay.
# cancer cell lines = test: crystal violet assay, cancer cell lines overall; settings: as seen in previous tables
# Method: Compound 1 and a comparative compound deferasirox (DFX) were tested in their efficacy to kill/suppress proliferation of malignant breast cancer MCF7 cells representing estrogen-dependent type of breast cancer. Briefly, 10.000 cells per well were seeded in a 96-well plate on one day and the next day the tested compounds were added and incubated with the cells for 48 hrs. The cells were then fixed with 4% paraformaldehyde, stained with 0.05% crystal violet, washed with PBS, and solubilized in 1% SDS. The absorbance of the plate at 595 nm was then measured, quantifying the number of viable cells.
# MDA-MB-231 = test: annexin V/PI staining, cell death induction, 48 hrs
# Method: This effect seems to be based mainly on the cytostatic effect of compound 1. To define the ability to kill cells, cell death-inducing potency (cytotoxic efficacy) of DFX and compound 1 have been tested via annexin V/PI staining commonly used as a measure of apoptotic/necrotic cell death. Briefly, cells were seeded in 12-well plate at 100,000 per well, incubated with the selected compounds for 48 hours, then floating cells were spun, adherent cells trypsinized and spun as well followed by the staining with AnnexinV-FITC and PI probes. Cells were then washed with PBS and measured via Fluorescence Activated Sorter.
# Since compound 1 is an iron chelator, we have evaluated the effect of pre-loading compound 1 with iron at a 2:1 ratio and then applying it to the cells, followed by measurement of cell death using the Annexin V/PI staining as in example 4.
# [2] = test system: MCF7 cells stably transfected with KEIMA; test: mitophagy induction, KEIMA reporter; settings: 24 hours
# Method: (§1) The effect of compounds 1 and 2 on mitophagy induction was assessed in MCF7 and MDA-MB-231 cells using the reporter protein KEIMA. The excitation spectra of KEIMA changes according to the mitochondrial pH, having an excitation peak at 440 nm atr pH>6 and at 586 at pH<5, with a second excitation peak remaining constant at 620 nm. Therefore, a decrease in the 440 nm/586 nm fluorescence ratio indicates mitochondrial acidification. MCF7 and MDA-MB-231 cells stably transfected with KEIMA were incubated with compound 1 for 24 hours and their fluorescence at both excitation wavelengths was measured by flow cytometry.
# [3] = test system: MDA-MB-231 cells stably transfected with KEIMA; test: mitophagy induction, KEIMA reporter; settings: 24 hours
# Method: as §1
smiles,measurement,setting,value
"O=C(NCCCCCCCCCC[P+](c1ccccc1)(c1ccccc1)c1ccccc1)c1ccc(-n2nc(-c3ccccc3O)nc2-c2ccccc2O)cc1 [Compound 1, (10-(4-(3,5-bis(2-hydroxyphenyl)-1H-1,2,4-triazol-1-yl)benzamido)decyl) triphenylphosphonium Chloride]",effect on cellular proliferation,MCF7 cells; MCF7,significant inhibition of cellular proliferation
same,Final % confluence,"MCF7 cells; MCF7, 48 hrs",15.01 (3.4) %
same,Slope 0-22 h (confluence versus time),"MCF7 cells; MCF7, Juli FL",0.258 (0.005)
same,Slope 22-48 h (confluence versus time),"MCF7 cells; MCF7, Juli FL",0.404 (0.005)
same,chemiluminescence ATP values normalized to control sample set as 100,[1],6.61 (1.91)
same,efficacy against cancer cell lines,cancer cell lines,10 to 100 nM
same,dead cells (AnnexinV/PI),MDA-MB-231; 5 μM,53.5 (23.1) %
same,dead cells (AnnexinV/PI),"MDA-MB-231; 5 μM, +Fe^+3 (pre-loaded with iron at a 2:1 ratio)",15.9 (2.7) %
same,dead cells (AnnexinV/PI),"MDA-MB-231; 5 μM, alone",61.1 (18.8) %
same,dead cells (AnnexinV/PI),"MDA-MB-231; 10 μM, +Fe^+3 (pre-loaded with iron at a 2:1 ratio)",22.4 (6.1) %
same,dead cells (AnnexinV/PI),"MDA-MB-231; 10 μM, alone",88.2 (5.8) %
same,KEIMA 440 nm/586 nm fluorescence ratio,[2]; 1.5 μM,1.01 (0.14)
same,KEIMA 440 nm/586 nm fluorescence ratio,[2]; 2.5 μM,0.99 (0.13)
same,KEIMA 440 nm/586 nm fluorescence ratio,[2]; 5 μM,0.86 (0.15)
same,KEIMA 440 nm/586 nm fluorescence ratio,[2]; 10 μM,0.71 (0.25)
same,KEIMA 440 nm/586 nm fluorescence ratio,[3]; 1.5 μM,0.81 (0.02)
same,KEIMA 440 nm/586 nm fluorescence ratio,[3]; 2.5 μM,0.81 (0.03)
same,KEIMA 440 nm/586 nm fluorescence ratio,[3]; 5 μM,0.76 (0.10)
same,KEIMA 440 nm/586 nm fluorescence ratio,[3]; 10 μM,0.50 (0.04)
